These compounds were tested against Platelet-activating factor receptor (Homo sapiens, UniProt P25105) (assay: Antagonistic activity for inhibition of [3H]PAF receptor binding to washed human platelet membranes.).
Platelet-activating factor receptor, sequence (P25105 whole entry): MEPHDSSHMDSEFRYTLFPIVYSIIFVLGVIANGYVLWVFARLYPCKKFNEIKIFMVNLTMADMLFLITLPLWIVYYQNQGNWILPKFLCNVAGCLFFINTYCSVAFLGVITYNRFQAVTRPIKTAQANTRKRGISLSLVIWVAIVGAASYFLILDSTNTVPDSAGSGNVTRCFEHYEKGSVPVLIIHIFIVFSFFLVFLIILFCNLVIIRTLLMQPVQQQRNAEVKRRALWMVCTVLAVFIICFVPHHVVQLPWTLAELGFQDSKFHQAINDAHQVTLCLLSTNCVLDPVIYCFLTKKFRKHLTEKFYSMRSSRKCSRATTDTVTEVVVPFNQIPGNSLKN

| SMILES | IC50 [nM] |
| --- | --- |
| O=C([C@@H]1CSC(c2cccnc2)N1)N1CCN(CCCc2ccccc2)CC1 (stereo partly drawn) | 2.3 |
| CCOC[C@H](CC(C)C)NS(=O)(=O)c1ccc(Cn2c(C)nc3cnccc32)cc1 | 0.015 |
| Cc1nc2ccccc2n1Cc1ccc(C(=O)N(C)C2CCCCC2)cc1 | 500 |
